Measurements: patent US10047051B2, “Substituted pyridines and method of use” (AbbVie S.á{acute over (.)}r.l., priority 2015, dated 2018)
pEC50: −log10 of the molar value.

Key:
CFTR ΔF508 mutant = target: T1, CFTR ΔF508 mutant (Homo sapiens, UniProt P13569, DEL508-508); test: YFP-halide influx assay for the CFTR-ΔF508 mutation (CFBE41o- cells); type: cell-based; conditions: forskolin 10.67 μM; for pEC50: from (1−F/F0) vs concentration plot
T1 construct: expressed in transfected cells; host or cells: CFBE41o- cells, adenoviral transduction
How it was run: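 EC50 derived from plotting 1−F/F0 (fluorescence 36 s after iodide injection over pre-injection value) against compound concentration. Cells: CFBE41o- transduced with ΔF508-CFTR and YFP quench reporter, corrected 24 h at 27° C or by a CFTR modulator at 37° C.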

CFTR G551D mutant = target: T2, CFTR G551D mutant (Homo sapiens, UniProt P13569, G551D); test: YFP-halide influx assay for the CFTR-G551D mutation (HEK293 cells); type: cell-based; conditions: forskolin 10.67 μM
T2 construct: expressed in transfected cells; host or cells: HEK293 cells, reverse transfection with plasmids
How it was run: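 Channel opening read as I⁻-driven quenching of a YFP H148Q/I152L/F47L reporter over 7 s post-injection, expressed as 1−F/F0 and fitted against concentration for EC50. Cells were HEK293 co-transfected at seeding with G551D CFTR plus reporter, then grown 24 h at 37 °C, 5% CO2.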

T2 sequence (P13569 whole entry G551D): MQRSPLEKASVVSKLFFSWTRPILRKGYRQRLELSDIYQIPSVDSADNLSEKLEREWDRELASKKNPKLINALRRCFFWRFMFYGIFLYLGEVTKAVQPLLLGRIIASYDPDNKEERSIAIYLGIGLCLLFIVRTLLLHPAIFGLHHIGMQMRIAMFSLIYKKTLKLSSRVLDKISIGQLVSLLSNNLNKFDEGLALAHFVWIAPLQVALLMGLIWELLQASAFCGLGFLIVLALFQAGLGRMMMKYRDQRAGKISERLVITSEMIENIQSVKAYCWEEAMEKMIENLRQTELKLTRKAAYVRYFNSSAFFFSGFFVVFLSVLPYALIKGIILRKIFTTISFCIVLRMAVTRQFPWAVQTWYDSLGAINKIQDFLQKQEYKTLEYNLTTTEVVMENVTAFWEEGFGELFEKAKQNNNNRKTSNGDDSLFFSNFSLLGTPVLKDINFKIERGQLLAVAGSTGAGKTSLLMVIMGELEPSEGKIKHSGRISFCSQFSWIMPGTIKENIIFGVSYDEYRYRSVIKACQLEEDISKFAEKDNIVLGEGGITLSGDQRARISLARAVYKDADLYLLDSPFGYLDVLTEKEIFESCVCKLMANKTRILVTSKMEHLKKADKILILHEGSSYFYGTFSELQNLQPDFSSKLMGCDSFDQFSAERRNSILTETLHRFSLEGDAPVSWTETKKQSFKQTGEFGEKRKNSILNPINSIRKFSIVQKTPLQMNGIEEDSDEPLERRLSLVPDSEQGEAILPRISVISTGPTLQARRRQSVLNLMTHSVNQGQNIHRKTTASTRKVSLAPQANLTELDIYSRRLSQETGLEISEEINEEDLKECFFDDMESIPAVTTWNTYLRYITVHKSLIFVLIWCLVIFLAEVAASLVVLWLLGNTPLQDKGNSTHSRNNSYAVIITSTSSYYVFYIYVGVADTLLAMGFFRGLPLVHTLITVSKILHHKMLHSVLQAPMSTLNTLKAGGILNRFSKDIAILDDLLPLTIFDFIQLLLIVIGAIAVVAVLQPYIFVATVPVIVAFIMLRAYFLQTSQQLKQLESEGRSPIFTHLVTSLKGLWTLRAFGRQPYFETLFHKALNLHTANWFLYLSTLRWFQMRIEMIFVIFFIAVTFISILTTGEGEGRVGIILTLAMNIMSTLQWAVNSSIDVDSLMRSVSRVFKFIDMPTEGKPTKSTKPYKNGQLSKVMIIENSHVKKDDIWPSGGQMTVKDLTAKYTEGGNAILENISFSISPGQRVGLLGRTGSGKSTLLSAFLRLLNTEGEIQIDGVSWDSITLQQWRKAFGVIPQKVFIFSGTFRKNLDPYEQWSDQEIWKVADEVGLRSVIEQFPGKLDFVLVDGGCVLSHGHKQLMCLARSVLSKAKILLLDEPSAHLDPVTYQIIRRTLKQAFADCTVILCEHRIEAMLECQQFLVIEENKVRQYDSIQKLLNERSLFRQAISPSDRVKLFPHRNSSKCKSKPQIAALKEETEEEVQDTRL
T1 sequence (P13569 with tags, fused parts or gaps DEL508-508): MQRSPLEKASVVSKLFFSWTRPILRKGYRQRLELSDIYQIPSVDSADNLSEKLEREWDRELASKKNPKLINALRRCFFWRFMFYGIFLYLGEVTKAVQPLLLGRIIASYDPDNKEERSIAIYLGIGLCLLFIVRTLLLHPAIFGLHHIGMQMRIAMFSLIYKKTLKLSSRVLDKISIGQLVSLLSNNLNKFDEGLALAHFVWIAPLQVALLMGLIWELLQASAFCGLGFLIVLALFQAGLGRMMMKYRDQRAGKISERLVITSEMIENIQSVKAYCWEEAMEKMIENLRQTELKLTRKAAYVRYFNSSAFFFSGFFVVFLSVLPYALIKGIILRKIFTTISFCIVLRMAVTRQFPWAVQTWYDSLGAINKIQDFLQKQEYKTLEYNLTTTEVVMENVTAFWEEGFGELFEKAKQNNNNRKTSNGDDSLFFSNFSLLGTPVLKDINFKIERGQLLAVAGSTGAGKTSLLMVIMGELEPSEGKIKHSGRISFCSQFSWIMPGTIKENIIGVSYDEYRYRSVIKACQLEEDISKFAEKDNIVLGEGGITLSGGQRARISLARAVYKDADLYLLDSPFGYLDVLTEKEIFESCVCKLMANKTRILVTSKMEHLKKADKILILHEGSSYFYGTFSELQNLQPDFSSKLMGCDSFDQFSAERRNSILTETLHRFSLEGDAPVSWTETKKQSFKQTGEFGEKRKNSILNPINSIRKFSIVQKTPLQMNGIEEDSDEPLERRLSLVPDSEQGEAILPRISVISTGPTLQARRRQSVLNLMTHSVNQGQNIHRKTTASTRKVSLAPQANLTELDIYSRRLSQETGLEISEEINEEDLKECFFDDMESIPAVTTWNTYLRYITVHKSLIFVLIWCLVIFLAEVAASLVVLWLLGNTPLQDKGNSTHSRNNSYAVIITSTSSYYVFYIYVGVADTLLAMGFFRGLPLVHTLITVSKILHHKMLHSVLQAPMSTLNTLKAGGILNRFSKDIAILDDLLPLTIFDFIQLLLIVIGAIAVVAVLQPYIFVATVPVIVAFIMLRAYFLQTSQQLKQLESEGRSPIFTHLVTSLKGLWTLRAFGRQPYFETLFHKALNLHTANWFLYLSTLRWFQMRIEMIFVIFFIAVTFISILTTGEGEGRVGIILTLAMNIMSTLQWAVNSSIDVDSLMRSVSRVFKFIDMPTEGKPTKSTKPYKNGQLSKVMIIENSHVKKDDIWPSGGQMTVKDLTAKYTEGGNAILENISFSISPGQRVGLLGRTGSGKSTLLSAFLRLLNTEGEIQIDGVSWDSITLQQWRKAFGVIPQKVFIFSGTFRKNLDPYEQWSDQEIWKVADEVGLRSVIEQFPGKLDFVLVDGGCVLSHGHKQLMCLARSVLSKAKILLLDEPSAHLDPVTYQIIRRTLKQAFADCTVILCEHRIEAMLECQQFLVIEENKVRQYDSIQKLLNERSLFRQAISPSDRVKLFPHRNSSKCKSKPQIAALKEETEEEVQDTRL

| Compound | % Activation (CFTR ΔF508 mutant) | pEC50 (CFTR ΔF508 mutant) | % Activation (CFTR G551D mutant) | pEC50 (CFTR G551D mutant) |
| --- | --- | --- | --- | --- |
| Nc1cc(S(=O)(=O)c2ccc(OC(F)(F)F)cc2)cnc1C(=O)NCC1(O)CCOC1 (centres unmarked) [Compound 28, 3-amino-N-[(3-hydroxytetrahydrofuran-3-yl)methyl]-5-{[4-(trifluoromethoxy)phenyl]sulfonyl}pyridine-2-carboxamide] | 97.2% | 7.30 | 51.9% | 5.63 |
| C[C@H](O)CNC(=O)c1ncc(S(=O)(=O)N(C)C2CCC2)cc1N [Compound 278, 3-amino-5-[cyclobutyl(methyl)sulfamoyl]-N-[(2S)-2-hydroxypropyl]pyridine-2-carboxamide] | 105.0% | 7.36 | 21.3% | < 5.00 |
| Nc1cc(S(=O)(=O)c2ccc(C(F)(F)F)cc2)cnc1C(=O)N[C@H]1COCC[C@H]1O [Compound 257, 3-amino-N-[(3S,4R)-4-hydroxytetrahydro-2H-pyran-3-yl]-5-{[4-(trifluoromethyl)phenyl]sulfonyl}pyridine-2-carboxamide] | 122.0% | 7.57 | 50.4% | 6.12 |
| COCC(O)CNC(=O)c1ncc(S(=O)(=O)N2CCC[C@@H]2C)cc1N (stereo partly drawn) [Compound 276, 3-amino-N-(2-hydroxy-3-methoxypropyl)-5-{[(2S)-2-methylpyrrolidin-1-yl]sulfonyl}pyridine-2-carboxamide] | 108.0% | 6.96 | 13.7% | < 5.00 |
| Nc1cc(S(=O)(=O)NC[C@H]2CCOC2)cnc1C(=O)NCC(O)C(F)(F)F (stereo partly drawn) [Compound 200, 3-amino-5-{[(3R)-tetrahydrofuran-3-ylmethyl]sulfamoyl}-N-(3,3,3-trifluoro-2-hydroxypropyl)pyridine-2-carboxamide] | 116.7% | 7.37 | 59.5% | 5.63 |
| Nc1cc(S(=O)(=O)N2CCCC(F)(F)C2)cnc1C(=O)NCC(O)C(F)(F)F (centres unmarked) [Compound 183, 3-amino-5-[(3,3-difluoropiperidin-1-yl)sulfonyl]-N-(3,3,3-trifluoro-2-hydroxypropyl)pyridine-2-carboxamide] | 103.7% | 7.68 | 42.0% | 5.95 |
| COC[C@H](O)CNC(=O)c1ncc(S(=O)(=O)c2ccc(OC(F)(F)F)cc2)cc1N [Compound 69, 3-amino-N-[(2R)-2-hydroxy-3-methoxypropyl]-5-{[4-(trifluoromethoxy)phenyl]sulfonyl}pyridine-2-carboxamide] | 102.0% | 8.24 | 85.0% | 5.97 |
| Nc1cc(S(=O)(=O)c2ccc(OC(F)(F)F)cc2)cnc1C(=O)N1CC2(CCCOC2)C1 [Compound 121, (3-amino-5-{[4-(trifluoromethoxy)phenyl]sulfonyl}pyridin-2-yl)(6-oxa-2-azaspiro[3.5]non-2-yl)methanone] | 102% | 6.95 | 88.6% | 5.88 |
| C[C@H](O)CNC(=O)c1ncc(S(=O)(=O)N(C)Cc2ccc(F)cc2)cc1N [Compound 269, 3-amino-5-[(4-fluorobenzyl)(methyl)sulfamoyl]-N-[(2S)-2-hydroxypropyl]pyridine-2-carboxamide] | 107.0% | 8.11 | 44.8% | 5.88 |
| Nc1cc(S(=O)(=O)c2ccc(C(F)(F)F)cc2)cnc1C(=O)NCCC(F)(F)F [Compound 212, 3-amino-5-{[4-(trifluoromethyl)phenyl]sulfonyl}-N-(3,3,3-trifluoropropyl)pyridine-2-carboxamide] | 96.7% | 7.33 | 33.0% | – |
| Nc1cc(S(=O)(=O)c2cccc(OC(F)(F)F)c2)cnc1C(=O)NCC(O)C(F)(F)F (centres unmarked) [Compound 236, 3-amino-N-(3,3,3-trifluoro-2-hydroxypropyl)-5-{[3-(trifluoromethoxy)phenyl]sulfonyl}pyridine-2-carboxamide] | 115.5% | 8.44 | 77.2% | 6.44 |
| CN(CCC(F)(F)F)S(=O)(=O)c1cnc(C(=O)NCC(O)C(F)(F)F)c(N)c1 (centres unmarked) [Compound 225, 3-amino-5-[methyl(3,3,3-trifluoropropyl)sulfamoyl]-N-(3,3,3-trifluoro-2-hydroxypropyl)pyridine-2-carboxamide] | 106.7% | 7.51 | 44.2% | 5.66 |
| Nc1cc(S(=O)(=O)c2ccc(C(F)(F)F)cc2)cnc1C(=O)N[C@@H]1CCC[C@@H]1O [Compound 205, 3-amino-N-[(1R,2S)-2-hydroxycyclopentyl]-5-{[4-(trifluoromethyl)phenyl]sulfonyl}pyridine-2-carboxamide] | 96.5% | 7.22 | 37.6% | – |
| Nc1cc(S(=O)(=O)c2ccc(OC(F)(F)F)cc2)cnc1C(=O)NCCC1OCCO1 [Compound 147, 3-amino-N-[2-(1,3-dioxolan-2-yl)ethyl]-5-{[4-(trifluoromethoxy)phenyl]sulfonyl}pyridine-2-carboxamide] | 105.5% | 7.39 | 69.0% | 5.89 |
| CC(C)(C)C1CCN(S(=O)(=O)c2cnc(C(=O)NCC(O)C(F)(F)F)c(N)c2)CC1 (centres unmarked) [Compound 197, 3-amino-5-[(4-tert-butylpiperidin-1-yl)sulfonyl]-N-(3,3,3-trifluoro-2-hydroxypropyl)pyridine-2-carboxamide] | 106.7% | 8.41 | 76.4% | 6.47 |
| Nc1cc(S(=O)(=O)c2ccc(OC(F)(F)F)cc2)cnc1C(=O)NCC1CC1 [Compound 155, 3-amino-N-(cyclopropylmethyl)-5-{[4-(trifluoromethoxy)phenyl]sulfonyl}pyridine-2-carboxamide] | 108.0% | 7.09 | 80.2% | 6.01 |
| Nc1cc(S(=O)(=O)c2ccc(OC(F)(F)F)cc2)cnc1C(=O)NCC1(CO)CC1 [Compound 22, 3-amino-N-{[1-(hydroxymethyl)cyclopropyl]methyl}-5-{[4-(trifluoromethoxy)phenyl]sulfonyl}pyridine-2-carboxamide] | 102.2% | 7.27 | 53.2% | 6.11 |
| Nc1cc(S(=O)(=O)c2ccc(C(F)(F)F)cc2)cnc1C(=O)N1CCC[C@@H]1CO [Compound 233, (3-amino-5-{[4-(trifluoromethyl)phenyl]sulfonyl}pyridin-2-yl) [(2R)-2-(hydroxymethyl)pyrrolidin-1-yl]methanone] | 44.9% | 5.86 | 5.4% | < 5.00 |
| Nc1cc(S(=O)(=O)c2ccccc2OC(F)(F)F)cnc1C(=O)N1CC(O)C1 [Compound 76, (3-amino-5-{[2-(trifluoromethoxy)phenyl]sulfonyl}pyridin-2-yl)(3-hydroxyazetidin-1-yl)methanone] | 112.0% | 8.37 | 54.3% | < 5.48 |
| CC1(CCNC(=O)c2ncc(S(=O)(=O)c3ccc(OC(F)(F)F)cc3)cc2N)CC1 [Compound 124, 3-amino-N-[2-(1-methylcyclopropyl)ethyl]-5-{[4-(trifluoromethoxy)phenyl]sulfonyl}pyridine-2-carboxamide] | 104.0% | 7.00 | 57.0% | 6.08 |
| C[C@H](O)CNC(=O)c1ncc(S(=O)(=O)N2CCC[C@@H]2C)cc1N [Compound 266, 3-amino-N-[(2S)-2-hydroxypropyl]-5-{[(2S)-2-methylpyrrolidin-1-yl]sulfonyl}pyridine-2-carboxamide] | 105.0% | 6.74 | 21.9% | < 5.00 |
| Nc1cc(S(=O)(=O)c2ccc(C(F)(F)F)cc2)cnc1C(=O)NCCOC(F)(F)F [Compound 240, 3-amino-N-[2-(trifluoromethoxy)ethyl]-5-{[4-(trifluoromethyl)phenyl]sulfonyl}pyridine-2-carboxamide] | 98.1% | 6.86 | 50.6% | 6.02 |
